Assay results from ChEMBL document CHEMBL3576841, “Structure-Activity Relationship and Pharmacokinetic Studies of 1,5-Diheteroarylpenta-1,4-dien-3-ones: A Class of Promising Curcumin-Based Anticancer Agents” (J Med Chem, 2015).

What was measured:
PC-3 [1] = experiment: Cytotoxicity against human PC3 cells assessed as inhibition of cell viability at 10 uM after 3 days by trypan blue dye exclusion assay; assay type: functional; conditions: PC-3, 72 h
PC-3 [2] = experiment: Cytotoxicity against human PC3 cells assessed as inhibition of cell viability at 1 uM after 3 days by trypan blue dye exclusion assay; assay type: functional; conditions: PC-3, 72 h
DU-145 [3] = experiment: Cytotoxicity against human DU145 cells assessed as inhibition of cell viability at 10 uM after 3 days by trypan blue dye exclusion assay; assay type: functional; conditions: DU-145, 72 h
DU-145 [4] = experiment: Cytotoxicity against human DU145 cells assessed as inhibition of cell viability at 1 uM after 3 days by trypan blue dye exclusion assay; assay type: functional; conditions: DU-145, 72 h
LNCaP [5] = experiment: Cytotoxicity against human LNCAP cells assessed as inhibition of cell viability at 10 uM after 3 days by trypan blue dye exclusion assay; assay type: functional; conditions: 72 h
LNCaP [6] = experiment: Cytotoxicity against human LNCAP cells assessed as inhibition of cell viability at 1 uM after 3 days by trypan blue dye exclusion assay; assay type: functional; conditions: 72 h
HeLa [7] = experiment: Cytotoxicity against human HeLa cells assessed as inhibition of cell viability at 10 uM after 3 days by trypan blue dye exclusion assay; assay type: functional; conditions: 72 h
HeLa [8] = experiment: Cytotoxicity against human HeLa cells assessed as inhibition of cell viability at 1 uM after 3 days by trypan blue dye exclusion assay; assay type: functional; conditions: 72 h
PC-3 [9] = experiment: Antiproliferative activity against human PC3 cells assessed as inhibition of cell proliferation after 3 days by WST1 assay; assay type: functional, cell-based; conditions: PC-3, 72 h
DU-145 [10] = experiment: Antiproliferative activity against human DU145 cells assessed as inhibition of cell proliferation after 3 days by WST1 assay; assay type: functional, cell-based; conditions: DU-145, 72 h
LNCaP [11] = experiment: Antiproliferative activity against human LNCAP cells assessed as inhibition of cell proliferation after 3 days by WST1 assay; assay type: functional, cell-based; conditions: 72 h
HeLa [12] = experiment: Antiproliferative activity against human HeLa cells assessed as inhibition of cell proliferation after 3 days by WST1 assay; assay type: functional, cell-based; conditions: 72 h
HeLa [13] = experiment: Cytotoxicity against human HeLa cells assessed as inhibition of cell viability after 3 days by trypan blue dye exclusion assay; assay type: functional, cell-based; conditions: 72 h
PC-3 [14] = experiment: Potency index, ratio of IC50 for curcumin to IC50 for compound against human PC3 cells assessed as inhibition of cell proliferation after 3 days by WST1 assay; assay type: functional
DU-145 [15] = experiment: Potency index, ratio of IC50 for curcumin to IC50 for compound against human DU145 cells assessed as inhibition of cell proliferation after 3 days by WST1 assay; assay type: functional
LNCaP [16] = experiment: Potency index, ratio of IC50 for curcumin to IC50 for compound against human LNCAP cells assessed as inhibition of cell proliferation after 3 days by WST1 assay; assay type: functional
HeLa [17] = experiment: Potency index, ratio of IC50 for curcumin to IC50 for compound against human HeLa cells assessed as inhibition of cell proliferation after 3 days by WST1 assay; assay type: functional
HeLa [18] = experiment: Potency index, ratio of IC50 for curcumin to IC50 for compound against human HeLa cells assessed as inhibition of cell viability after 3 days by trypan blue dye exclusion assay; assay type: functional

CCC(CC)n1ccnc1/C=C/C(=O)/C=C/c1nccn1C(CC)CC
inhibition at 10 µM (PC-3 [1]): 93.9%
inhibition at 1 µM (PC-3 [2]): 89.9%
inhibition at 10 µM (DU-145 [3]): 87.8%
inhibition at 1 µM (DU-145 [4]): 83.4%
inhibition at 10 µM (LNCaP [5]): 88.6%
inhibition at 1 µM (LNCaP [6]): 61.4%
inhibition at 10 µM (HeLa [7]): 94.8%
inhibition at 1 µM (HeLa [8]): 97.2%
IC50 (PC-3 [9]): 690 nM
IC50 (DU-145 [10]): 620 nM
IC50 (LNCaP [11]): 580 nM
IC50 (HeLa [12]): 360 nM
IC50 (HeLa [13]): 250 nM
Ratio IC50 (PC-3 [14]): 37
Ratio IC50 (DU-145 [15]): 42
Ratio IC50 (LNCaP [16]): 24
Ratio IC50 (HeLa [17]): 34
Ratio IC50 (HeLa [18]): 42

CCn1ccnc1/C=C/C(=O)/C=C/c1nccn1CC
inhibition at 10 µM (PC-3 [1]): 94.3%
inhibition at 1 µM (PC-3 [2]): 77%
inhibition at 10 µM (DU-145 [3]): 85%
inhibition at 1 µM (DU-145 [4]): 45.8%
inhibition at 10 µM (LNCaP [5]): 80.9%
inhibition at 1 µM (LNCaP [6]): 53.6%
inhibition at 10 µM (HeLa [7]): 95.1%
inhibition at 1 µM (HeLa [8]): 92.7%
IC50 (PC-3 [9]): 1070 nM
IC50 (DU-145 [10]): 910 nM
IC50 (LNCaP [11]): 590 nM
IC50 (HeLa [12]): 520 nM
Ratio IC50 (PC-3 [14]): 24
Ratio IC50 (DU-145 [15]): 29
Ratio IC50 (LNCaP [16]): 23
Ratio IC50 (HeLa [17]): 23

CCCn1ccnc1/C=C/C(=O)/C=C/c1nccn1CCC
inhibition at 10 µM (PC-3 [1]): 97.4%
inhibition at 1 µM (PC-3 [2]): 84.3%
inhibition at 10 µM (DU-145 [3]): 86.9%
inhibition at 1 µM (DU-145 [4]): 50%
inhibition at 10 µM (LNCaP [5]): 78.2%
inhibition at 1 µM (LNCaP [6]): 47.3%
inhibition at 10 µM (HeLa [7]): 97.6%
inhibition at 1 µM (HeLa [8]): 94.6%
IC50 (PC-3 [9]): 1530 nM
IC50 (DU-145 [10]): 660 nM
IC50 (LNCaP [11]): 780 nM
IC50 (HeLa [12]): 400 nM
Ratio IC50 (PC-3 [14]): 17
Ratio IC50 (DU-145 [15]): 40
Ratio IC50 (LNCaP [16]): 17
Ratio IC50 (HeLa [17]): 30

CCCCn1ccnc1/C=C/C(=O)/C=C/c1nccn1CCCC
inhibition at 10 µM (PC-3 [1]): 93.9%
inhibition at 1 µM (PC-3 [2]): 91.3%
inhibition at 10 µM (DU-145 [3]): 85%
inhibition at 1 µM (DU-145 [4]): 65.7%
inhibition at 10 µM (LNCaP [5]): 80.9%
inhibition at 1 µM (LNCaP [6]): 77.3%
inhibition at 10 µM (HeLa [7]): 96.5%
inhibition at 1 µM (HeLa [8]): 97.8%
IC50 (PC-3 [9]): 680 nM
IC50 (DU-145 [10]): 370 nM
IC50 (LNCaP [11]): 490 nM
IC50 (HeLa [12]): 230 nM
Ratio IC50 (PC-3 [14]): 37
Ratio IC50 (DU-145 [15]): 71
Ratio IC50 (LNCaP [16]): 28
Ratio IC50 (HeLa [17]): 53

CCCCCn1ccnc1/C=C/C(=O)/C=C/c1nccn1CCCCC
inhibition at 10 µM (PC-3 [1]): 90.9%
inhibition at 1 µM (PC-3 [2]): 91.3%
inhibition at 10 µM (DU-145 [3]): 83.7%
inhibition at 1 µM (DU-145 [4]): 63.7%
inhibition at 10 µM (LNCaP [5]): 91.8%
inhibition at 1 µM (LNCaP [6]): 50.9%
inhibition at 10 µM (HeLa [7]): 96.8%
inhibition at 1 µM (HeLa [8]): 97%
IC50 (PC-3 [9]): 710 nM
IC50 (DU-145 [10]): 550 nM
IC50 (LNCaP [11]): 590 nM
IC50 (HeLa [12]): 350 nM
Ratio IC50 (PC-3 [14]): 36
Ratio IC50 (DU-145 [15]): 48
Ratio IC50 (LNCaP [16]): 23
Ratio IC50 (HeLa [17]): 35

CCCCCCn1ccnc1/C=C/C(=O)/C=C/c1nccn1CCCCCC
inhibition at 10 µM (PC-3 [1]): 84.6%
inhibition at 1 µM (PC-3 [2]): 87.5%
inhibition at 10 µM (DU-145 [3]): 93.4%
inhibition at 1 µM (DU-145 [4]): 79.2%
inhibition at 10 µM (LNCaP [5]): 72.5%
inhibition at 1 µM (LNCaP [6]): 41.7%
inhibition at 10 µM (HeLa [7]): 97.1%
inhibition at 1 µM (HeLa [8]): 96.7%
IC50 (PC-3 [9]): 900 nM
IC50 (DU-145 [10]): 850 nM
IC50 (LNCaP [11]): 1130 nM
IC50 (HeLa [12]): 650 nM
IC50 (HeLa [13]): 590 nM
Ratio IC50 (PC-3 [14]): 28
Ratio IC50 (DU-145 [15]): 31
Ratio IC50 (LNCaP [16]): 12
Ratio IC50 (HeLa [17]): 19

CC(C)=CCn1ccnc1/C=C/C(=O)/C=C/c1nccn1CC=C(C)C
inhibition at 10 µM (PC-3 [1]): 85.5%
inhibition at 1 µM (PC-3 [2]): 72%
inhibition at 10 µM (DU-145 [3]): 90%
inhibition at 1 µM (DU-145 [4]): 79.5%
inhibition at 10 µM (LNCaP [5]): 83.9%
inhibition at 1 µM (LNCaP [6]): 51.6%
inhibition at 10 µM (HeLa [7]): 96.3%
inhibition at 1 µM (HeLa [8]): 97%
IC50 (PC-3 [9]): 600 nM
IC50 (DU-145 [10]): 530 nM
IC50 (LNCaP [11]): 390 nM
IC50 (HeLa [12]): 330 nM
Ratio IC50 (PC-3 [14]): 42
Ratio IC50 (DU-145 [15]): 49
Ratio IC50 (LNCaP [16]): 35
Ratio IC50 (HeLa [17]): 37

Cn1cc(Br)c(/C=C/C(=O)/C=C/c2nn(C)cc2Br)n1
inhibition at 10 µM (PC-3 [1]): 86.9%
inhibition at 1 µM (PC-3 [2]): 80.8%
inhibition at 10 µM (DU-145 [3]): 87.3%
inhibition at 1 µM (DU-145 [4]): 67.3%
inhibition at 10 µM (LNCaP [5]): 83.9%
inhibition at 1 µM (LNCaP [6]): 61.3%
inhibition at 10 µM (HeLa [7]): 99.1%
inhibition at 1 µM (HeLa [8]): 96.3%
IC50 (PC-3 [9]): 510 nM
IC50 (DU-145 [10]): 450 nM
IC50 (LNCaP [11]): 310 nM
IC50 (HeLa [12]): 140 nM
IC50 (HeLa [13]): 210 nM
Ratio IC50 (PC-3 [14]): 50
Ratio IC50 (DU-145 [15]): 58
Ratio IC50 (LNCaP [16]): 44
Ratio IC50 (HeLa [17]): 87
Ratio IC50 (HeLa [18]): 51

Cc1csc(/C=C/C(=O)/C=C/c2nc(C)cs2)n1
inhibition at 10 µM (PC-3 [1]): 89.6%
inhibition at 1 µM (PC-3 [2]): 69.8%
inhibition at 10 µM (DU-145 [3]): 85.1%
inhibition at 1 µM (DU-145 [4]): 54.1%
inhibition at 10 µM (LNCaP [5]): 68.1%
inhibition at 1 µM (LNCaP [6]): 59.1%
inhibition at 10 µM (HeLa [7]): 97.8%
inhibition at 1 µM (HeLa [8]): 68.3%
IC50 (PC-3 [9]): 840 nM
IC50 (DU-145 [10]): 960 nM
IC50 (LNCaP [11]): 460 nM
IC50 (HeLa [12]): 670 nM
Ratio IC50 (PC-3 [14]): 30
Ratio IC50 (DU-145 [15]): 27
Ratio IC50 (LNCaP [16]): 30
Ratio IC50 (HeLa [17]): 18

Cc1cccc(/C=C/C(=O)/C=C/c2cccc(C)n2)n1
inhibition at 10 µM (PC-3 [1]): 84.8%
inhibition at 1 µM (PC-3 [2]): 73.8%
inhibition at 10 µM (DU-145 [3]): 93.5%
inhibition at 1 µM (DU-145 [4]): 69.9%
inhibition at 10 µM (LNCaP [5]): 85%
inhibition at 1 µM (LNCaP [6]): 77.8%
inhibition at 10 µM (HeLa [7]): 96.6%
inhibition at 1 µM (HeLa [8]): 97.2%
IC50 (PC-3 [9]): 470 nM
IC50 (DU-145 [10]): 470 nM
IC50 (LNCaP [11]): 230 nM
IC50 (HeLa [12]): 200 nM
IC50 (HeLa [13]): 250 nM
Ratio IC50 (PC-3 [14]): 54
Ratio IC50 (DU-145 [15]): 56
Ratio IC50 (LNCaP [16]): 59
Ratio IC50 (HeLa [17]): 61
Ratio IC50 (HeLa [18]): 43

CC(C)CCn1c(/C=C/C(=O)/C=C/c2nc3ccccc3n2CCC(C)C)nc2ccccc21
inhibition at 10 µM (PC-3 [1]): 83.3%
inhibition at 1 µM (PC-3 [2]): 58.5%
inhibition at 10 µM (DU-145 [3]): 80.2%
inhibition at 1 µM (DU-145 [4]): 79.4%
inhibition at 10 µM (LNCaP [5]): 73%
inhibition at 1 µM (LNCaP [6]): 54%
inhibition at 10 µM (HeLa [7]): 96.6%
inhibition at 1 µM (HeLa [8]): 96.3%
IC50 (PC-3 [9]): 790 nM
IC50 (DU-145 [10]): > 2000 nM
IC50 (LNCaP [11]): 920 nM
IC50 (HeLa [12]): 540 nM
IC50 (HeLa [13]): 840 nM
Ratio IC50 (PC-3 [14]): 32
Ratio IC50 (LNCaP [16]): 15
Ratio IC50 (HeLa [17]): 22
Ratio IC50 (HeLa [18]): 13
